Assays:
[1] = target: T1, MAO-B (Homo sapiens, UniProt P27338); assay: biochemical; conditions: for remaining activity at 10 µM: read-out: Residual Activity at 10 µM (%) MAO-B
T1 sequence (P27338 1-520): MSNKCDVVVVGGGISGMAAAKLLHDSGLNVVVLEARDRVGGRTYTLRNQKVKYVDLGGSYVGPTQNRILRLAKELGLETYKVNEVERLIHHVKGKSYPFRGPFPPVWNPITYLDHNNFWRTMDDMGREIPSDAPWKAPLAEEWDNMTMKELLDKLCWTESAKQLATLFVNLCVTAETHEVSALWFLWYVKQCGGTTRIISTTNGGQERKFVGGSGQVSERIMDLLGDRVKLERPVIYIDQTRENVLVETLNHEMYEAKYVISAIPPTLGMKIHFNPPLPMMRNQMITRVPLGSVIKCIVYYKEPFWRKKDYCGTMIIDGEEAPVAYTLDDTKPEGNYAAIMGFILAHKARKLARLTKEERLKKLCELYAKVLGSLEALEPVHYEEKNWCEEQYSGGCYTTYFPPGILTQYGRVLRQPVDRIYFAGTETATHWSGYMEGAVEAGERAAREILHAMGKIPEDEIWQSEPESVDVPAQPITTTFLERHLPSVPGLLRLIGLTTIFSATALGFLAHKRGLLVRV

[2] = target: T2, hMAO-A (Homo sapiens, UniProt P21397); assay: Inhibition of recombinant hMAO-A, kynuramine substrate, continuous absorbance method; conditions: for remaining activity at 10 µM: read-out: Residual Activity at 10 µM (%) MAO-A
T2 sequence (P21397 1-527): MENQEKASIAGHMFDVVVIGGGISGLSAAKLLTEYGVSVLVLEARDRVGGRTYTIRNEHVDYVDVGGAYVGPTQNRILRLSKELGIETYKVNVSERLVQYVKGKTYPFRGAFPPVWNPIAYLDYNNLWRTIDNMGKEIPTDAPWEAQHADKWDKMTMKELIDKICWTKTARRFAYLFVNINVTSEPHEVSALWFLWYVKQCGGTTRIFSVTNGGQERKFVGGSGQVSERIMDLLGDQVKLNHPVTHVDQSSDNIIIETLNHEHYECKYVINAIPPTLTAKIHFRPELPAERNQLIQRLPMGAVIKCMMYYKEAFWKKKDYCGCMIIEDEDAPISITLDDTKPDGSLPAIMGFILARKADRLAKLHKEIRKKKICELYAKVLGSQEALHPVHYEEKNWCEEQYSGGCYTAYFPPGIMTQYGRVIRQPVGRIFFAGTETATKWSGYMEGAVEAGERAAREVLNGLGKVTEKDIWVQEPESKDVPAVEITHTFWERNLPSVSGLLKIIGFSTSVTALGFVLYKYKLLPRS

[3] = PAMPA for blood-brain barrier permeation; type: in vitro ADME; conditions: class from Pe

SMILES | IC50 [1] | remaining activity at 10 µM [1] | IC50 [2] | remaining activity at 10 µM [2] | Prediction (BBB permeation class) [3]
COc1cc(C=NNC(=O)Cn2nc(N3CCC(Cc4ccccc4)CC3)ccc2=O)cc(OC)c1 [Compound S20, N′-3,5-dimethoxybenzylidene-2-(3-(4-benzylpiperidin-1-yl)-6-oxopyridazin-1(6H)-yl)acetohydrazide] | 3.63 ± 0.142 µM | 11.7 ± 2.41% | 19 ± 2.71 µM | 68 ± 4.21% | –
Cc1ccccc1C=NNC(=O)Cn1nc(N2CCC(Cc3ccccc3)CC2)ccc1=O [Compound S9, N′-2-methylbenzylidene-2-(3-(4-benzylpiperidin-1-yl)-6-oxopyridazin-1(6H)-yl)acetohydrazide] | 7.24 ± 0.994 µM | 32.9 ± 5.19% | 4.51 ± 0.589 µM | 23.2 ± 1.2% | –
CCc1ccc(C=NNC(=O)Cn2nc(N3CCC(Cc4ccccc4)CC3)ccc2=O)cc1 [Compound S15, N′-4-ethylbenzylidene-2-(3-(4-benzylpiperidin-1-yl)-6-oxopyridazin-1(6H)-yl)acetohydrazide] | 5.34 ± 0.667 µM | 54.4 ± 4.05% | 3.69 ± 0.655 µM | 30.1 ± 8.1% | –
N#Cc1ccc(C=NNC(=O)Cn2nc(N3CCC(Cc4ccccc4)CC3)ccc2=O)cc1 [Compound S18, N′-4-cyanobenzylidene-2-(3-(4-benzylpiperidin-1-yl)-6-oxopyridazin-1(6H)-yl)acetohydrazide] | 3.51 ± 0.811 µM | 48.37 ± 0.08% | 7.19 ± 0.201 µM | 35.9 ± 2.54% | –
Cc1cccc(C=NNC(=O)Cn2nc(N3CCC(Cc4ccccc4)CC3)ccc2=O)c1 [Compound S10, N′-3-methylbenzylidene-2-(3-(4-benzylpiperidin-1-yl)-6-oxopyridazin-1(6H)-yl)acetohydrazide] | 3.549 ± 0.001 µM | 9.31 ± 2.04% | 4.53 ± 0.424 µM | 16.1 ± 4.26% | –
O=C(Cn1nc(N2CCC(Cc3ccccc3)CC2)ccc1=O)NN=Cc1ccc(Br)cc1 [Compound S2] | 10.7 ± 0.565 µM | 56.5 ± 4.99% | 10.9 ± 1.19 µM | 54.8 ± 3.1% | –
N#Cc1cccc(C=NNC(=O)Cn2nc(N3CCC(Cc4ccccc4)CC3)ccc2=O)c1 [Compound S17, N′-3-cyanobenzylidene-2-(3-(4-benzylpiperidin-1-yl)-6-oxopyridazin-1(6H)-yl)acetohydrazide] | 3.1 ± 0.088 µM | 0% | 6.28 ± 0.306 µM | 9.98 ± 0.57% | –
O=C(Cn1nc(N2CCC(Cc3ccccc3)CC2)ccc1=O)NN=Cc1ccccc1Br [Compound S3, N′-2-bromobenzylidene-2-(3-(4-benzylpiperidin-1-yl)-6-oxopyridazin-1(6H)-yl)acetohydrazide] | 4.75 ± 0.155 µM | 50.59 ± 0.01% | 4.13 ± 1.12 µM | 34.4 ± 1.93% | –
O=C(Cn1nc(N2CCC(Cc3ccccc3)CC2)ccc1=O)NN=Cc1cccc(F)c1 [Compound S7, N′-3-fluorobenzylidene-2-(3-(4-benzylpiperidin-1-yl)-6-oxopyridazin-1(6H)-yl)acetohydrazide] | 1.711 ± 0.009 µM | 1.03 ± 4.63% | 4.74 ± 0.624 µM | 12.8 ± 7.24% | –
COc1cc(OC)c(C=NNC(=O)Cn2nc(N3CCC(Cc4ccccc4)CC3)ccc2=O)c(OC)c1 [Compound S21, N′-2,4,6-trimethoxybenzylidene-2-(3-(4-benzylpiperidin-1-yl)-6-oxopyridazin-1(6H)-yl)acetohydrazide] | 6.12 ± 0.662 µM | 48.5 ± 6.43% | 7.47 ± 0.344 µM | 32.8 ± 2.18% | –
O=C(Cn1nc(N2CCC(Cc3ccccc3)CC2)ccc1=O)NN=Cc1ccccc1 [Compound S1] | 7.05 ± 0.086 µM | 36.5 ± 8.32% | 16.47 ± 0.047 µM | 63.4 ± 2.24% | –
O=C(Cn1nc(N2CCC(Cc3ccccc3)CC2)ccc1=O)NN=Cc1cccc(Br)c1 [Compound S4, N′-3-bromobenzylidene-2-(3-(4-benzylpiperidin-1-yl)-6-oxopyridazin-1(6H)-yl)acetohydrazide] | 6.17 ± 0.155 µM | 33.5 ± 2.5% | 27 ± 0.797 µM | 56.9 ± 9.78% | –
CN(C)c1ccc(C=NNC(=O)Cn2nc(N3CCC(Cc4ccccc4)CC3)ccc2=O)cc1 [Compound S13] | 6.48 ± 0.559 µM | 37.6 ± 2.5% | 5.63 ± 1.18 µM | 36.1 ± 1.01% | –
COc1cccc(C=NNC(=O)Cn2nc(N3CCC(Cc4ccccc4)CC3)ccc2=O)c1 [Compound S11] | 1.71 ± 0.437 µM | 14.5 ± 1.14% | 5.064 ± 0.006 µM | 16.6 ± 9.23% | –
O=C(Cn1nc(N2CCC(Cc3ccccc3)CC2)ccc1=O)NN=Cc1ccc(F)cc1 [Compound S8] | 5.37 ± 0.123 µM | 31.9 ± 2.62% | 7.99 ± 1.28 µM | 22.4 ± 3.07% | –
O=C(Cn1nc(N2CCC(Cc3ccccc3)CC2)ccc1=O)NN=Cc1ccc([N+](=O)[O-])cc1 [Compound S14] | 3.62 ± 0.54 µM | 39.8 ± 4.14% | 24.2 ± 0.283 µM | 67.1 ± 5.19% | –
COc1ccc(C=NNC(=O)Cn2nc(N3CCC(Cc4ccccc4)CC3)ccc2=O)c(OC)c1 [Compound S24, N′-2,4-dimethoxybenzylidene-2-(3-(4-benzylpiperidin-1-yl)-6-oxopyridazin-1(6H)-yl)acetohydrazide] | 10.7 ± 2.48 µM | 54.7 ± 3.76% | 4.13 ± 0.107 µM | 20.7 ± 1.34% | –
C#CCN(C)[C@H](C)Cc1ccccc1 [Selegiline, reference compound] | – | – | – | – | CNS+ (Pe (10^−6 cm·s^−1) > 4.00: CNS+ (high permeation))
COc1cccc(C=NNC(=O)Cn2nc(N3CCC(Cc4ccccc4)CC3)ccc2=O)c1OC [Compound S22, N′-2,3-dimethoxybenzylidene-2-(3-(4-benzylpiperidin-1-yl)-6-oxopyridazin-1(6H)-yl)acetohydrazide] | 7.87 ± 0.208 µM | 39 ± 2.83% | 5.94 ± 0.264 µM | -8.5 ± 2.12% | –
COc1ccc(C=NNC(=O)Cn2nc(N3CCC(Cc4ccccc4)CC3)ccc2=O)cc1 [Compound S12] | 6.463 ± 0.035 µM | 38.46 ± 0.36% | 4.642 ± 0.001 µM | 7.71 ± 8.25% | –
COc1cc(C=NNC(=O)Cn2nc(N3CCC(Cc4ccccc4)CC3)ccc2=O)cc(OC)c1OC [Compound S23, N′-3,4,5-trimethoxybenzylidene-2-(3-(4-benzylpiperidin-1-yl)-6-oxopyridazin-1(6H)-yl)acetohydrazide] | 10.9 ± 0.405 µM | 53.1 ± 2.67% | 28.4 ± 2.95 µM | 78.79 ± 0.3% | –
COc1ccccc1C=NNC(=O)Cn1nc(N2CCC(Cc3ccccc3)CC2)ccc1=O [Compound S19, N′-2-methoxybenzylidene-2-(3-(4-benzylpiperidin-1-yl)-6-oxopyridazin-1(6H)-yl)acetohydrazide] | – | 20.8 ± 1.76% | 4.66 ± 0.307 µM | 7.83 ± 2.05% | –
C#CCN(C)Cc1ccccc1 [Pargyline, reference compound] | – | – | – | 19.9 ± 6.82% | –
O=C(Cn1nc(N2CCC(Cc3ccccc3)CC2)ccc1=O)NN=Cc1ccc(Cl)cc1 [Compound S6] | 4.95 ± 0.353 µM | 26.7 ± 3.83% | 7.14 ± 1.07 µM | 42.2 ± 3.22% | –

From article PMC11243598, “Inhibition of Monoamine Oxidases by Pyridazinobenzylpiperidine Derivatives” (Molecules, 2024)
